The values below are quoted from earlier work in paper PMC4287394 (Clinical cancer research : an official journal of the …, 2014).

For this series the following is noted: Phase I; cited from earlier work.

Consider `C=CCN(/C=C1/C(=O)O[C@H](COC)[C@@]2(C)C1=C(O)C(=O)C1=C2[C@H](OC(C)=O)C[C@]2(C)C(=O)CC[C@@H]12)CC=C` [PX-866], for which the Hyperglycaemia result was “minimal hyperglycaemia” and the Patients with rash result is on record as “none”. Take `COc1ccc(Cl)c(Nc2nc3ccccc3nc2NS(=O)(=O)c2cccc(NC(=O)C(C)(C)N)c2)c1` [SAR245408]: the Hyperglycaemia entry is on record as “minimal hyperglycaemia” and the “Patients with rash (all grades)” value is on record as 26%. In the case of `Nc1cc(C(F)(F)F)c(-c2cc(N3CCOCC3)nc(N3CCOCC3)n2)cn1` [BKM120], the “Observed DLTs” value was “rash, hyperglycemia and mood alterations”.
